In US20140274984A1, “ACID ADDITION SALTS OF 5ALPHA-HYDROXY-6BETA-[2-(1H-IMIDAZOL-4-YL)ETHYLAMINO]CHOLESTAN-3BETA-OL” (INSERM (INSTITUT NATIONAL DE LA SANTÉ ET DE LA RECHERE …, priority 2011, published 2014):

Assay: Water solubility at room temperature (shake 5 hours, filtered supernatant, HPLC with calibration curve)
Type: physicochemical
Settings: shaken 5 hours
Protocol: An adequate amount of each sample was taken. Water (50% v/v) was added to each sample, and the mixture was shaken at room temperature for 5 hours. The supernatant was filtered through a filter, and diluted with a mixed solution of water 0.1% TFA/acetonitrile as necessary to give a sample solution. The concentration (mg/ml) of the sample solution was measured by high performance liquid chromatography (HPLC) with a calibration curve method, and taken as the solubility in water at room temperature.
HPLC Analysis Conditions:
HPLC purifications and analyses were carried out using an LC200 series Perkin Elmer apparatus, and diode array UV detector, using an Ultrasep C18 RP 100 column from Bischoff Chromatography.

Row | Solubility in water at room temperature [µg/mL] | Substance
1 | 1400 | 5alpha-Hydroxy-6beta-[2-(1H-imidazol-4-yl)ethylamino]cholestan-3beta-ol, pamoate [Example 7]
2 | 4500 | 5alpha-Hydroxy-6beta-[2-(1H-imidazol-4-yl)ethylamino]cholestan-3beta-ol, acetate [Example 14]
3 | 11000 | 5alpha-Hydroxy-6beta-[2-(1H-imidazol-4-yl)ethylamino]cholestan-3beta-ol, mesylate [Example 13]
